Converted amounts (≈) assume the structure as drawn. “Also recorded” adds a separate entry of the source. Like-named read-outs stand apart in the source and are kept apart here.
Key:
[1] = Repeated oral toxicity testing in monkeys; assay type: in vivo; conditions: for safe dosage: under these test conditions
Description: Compound A was given orally to monkeys every day for 28 days at dosages of 1, 3, 10 and 30 mg/kg/day, and its toxicity was studied.
As a result, at dosages of 3 mg/kg/day or more, a decrease in serum cortisol, hyperplasia and increase in lipid droplets in the zona fasciculata in the adrenal cortex, and atrophy of the seminiferous tubules of the testes were observed; at the dosage of 30 mg/kg/day, prolongation of the QTc interval in the electrocardiogram (QT period corrected for heart rate) was also observed. Under these test conditions, it was considered that 1 mg/kg/day was a safe dosage.
Compound (+)-I was given orally to monkeys every day for 28 days at dosages of 1, 3, 10 and 30 mg/kg/day, and its toxicity studied.
Under these test conditions, it was considered that 30 mg/kg/day was safe dosage.

[2] = tested on: Candida glabrata TIMM 1064; assay: Measurement of Minimum Inhibitory Concentration (MIC), agar dilution; assay type: cell-based; conditions: SDA agar plates, 30°C
Description: (§1) Measurement of Minimum Inhibitory Concentration (MIC)
(§2) Yeast-type fungi were cultured in Sabouraud dextrose broth (SDB, Difco) at 30°C for 24 hours, and 10⁵ cell/ml suspension for inoculation were prepared by diluting this with sterile physiological saline. In the case of filamentous fungi, 3 to 5 ml sterile physiological saline containing 0.05% (w/v) Tween 80 were added to mature Sabouraud dextrose agar culture medium (SDA, Difco) slant cultures (cultured for 2 to 3 weeks) in which conidia had formed abundantly, and the conidia were separated using an inoculating loop (Nunc Inc.). The conidial suspensions obtained were collected using a sterile pipette, and, after filtration through a double layer of sterile gauze to remove mycelial aggregates and agar fragments, were made into suspensions for inoculation by dilution of 10⁵ conidia/ml with sterile physiological saline. Meanwhile, as regards the drug-containing agar plates, a drug concentration of 0.005 to 10 mg/ml was prepared using dimethyl sulfoxide (DMSO, Wako Junyaku), and, by adding 99 parts of SDA to 1 part of this drug solution, two-fold serial dilution agar media of final dilutions 0.05 to 100 µg/ml were prepared. The fungal suspensions for inoculation prepared by the above method were inoculated onto these agar plates using a MIT-P microplanter (Sakuma Seisakusho).

[3] = tested on: Candida albicans IFM 40009; assay: as above; assay type: cell-based; conditions: 30°C, 48 hours
Description: as §1, §2

[4] = tested on: Cryptococcus neoformans TIMM 0362; assay: as above; assay type: cell-based; conditions: SDA agar plates, 30°C
Description: as §1, §2

[5] = tested on: Trichophyton mentagrophytes TIMM 1188; assay: as above; assay type: cell-based; conditions: SDA agar plates, 30°C
Description: as §1, §2

[6] = tested on: Aspergillus fumigatus IFM 4942; assay: as above; assay type: cell-based; conditions: SDA agar plates, 30°C
Description: as §1, §2

[7] = tested on: Candida tropicalis TIMM 0313; assay: as above; assay type: cell-based; conditions: SDA agar plates, 30°C
Description: as §1, §2

[8] = tested on: Candida albicans IFM 40009; assay: Effectiveness in treatment of in vivo infections (survival of infected mice); conditions: IFM40009, Candida albicans IFM 40009 i.v. infection, male ICR mice, survival after 2 weeks
Description: (§3) Measurement of Effectiveness in Treatment of In vivo Infections Using 10 animals per group, male ICR mice (body weight 18 to 20 g) were infected by intravenous injection of the test fungi as an aqueous suspension. The test compounds were given orally once 1 hour after infection, or once daily for 5 days starting from 1 hour after infection. After 2 weeks, the number of animals surviving was counted, and the dosage at which 50% of the animals survive (ED₅₀: mg/kg) was calculated using the Litchfield-Wilcoxon method.

[9] = tested on: Cryptococcus neoformans TIMM 0362; assay: as above; conditions: TIMM0362; Cryptococcus neoformans TIMM 0362 i.v. infection, male ICR mice; dosed orally 1x (1 hour after infection); survival after 2 weeks
Description: as §3

[10] = tested on: Aspergillus fumigatus IFM 4942; assay: as above; conditions: IFM4942; Aspergillus fumigatus IFM 4942 i.v. infection, male ICR mice; dosed orally 5x (once daily for 5 days); survival after 2 weeks
Description: as §3

[11] = Variation in the plasma concentrations in monkeys of the toxicity study; assay type: in vivo; conditions: repeated daily oral dosing for 28 days
[12] = every day for 28 days, 1, 3, 10 and 30 mg/kg/day
[13] = Nakaseomyces glabratus, TIMM1064, 48 h, read-out: MIC
[14] = IFM40009, SDA agar plates, read-out: MIC
[15] = Cryptococcus neoformans, TIMM0362, 48 h, read-out: MIC
[16] = Trichophyton mentagrophytes, TIMM1188, 48 h, read-out: MIC
[17] = Aspergillus fumigatus, IFM4942, 48 h, read-out: MIC
[18] = Candida tropicalis, TIMM0313, 48 h, read-out: MIC
[19] = dosed orally 5x (once daily for 5 days)
[20] = every day for 28 days, up to 30 mg/kg/day
[21] = dosed orally 1x (1 hour after infection)

Row | Compound | safe dosage ([1]; every day for 28 days) [mg/kg/day] | MIC [2, 13] [µg/mL] | MIC [3, 14] [µg/mL] | MIC [4, 15] [µg/mL] | MIC [5, 16] [µg/mL] | MIC [6, 17] [µg/mL] | MIC [7, 18] [µg/mL] | ED50 [8, 19] [mg/kg] | ED50 [9] [mg/kg] | ED50 [10] [mg/kg] | variation in the plasma concentrations with time (accumulation) [11] | ED50 [8, 21] [mg/kg] | other results
1 | OC(Cn1cncn1)(Cn1cnc(/C=C/c2ccc(OCC(F)(F)C(F)F)cc2)n1)c1ccc(F)cc1F (racemic) [compound A, (±)-2-(2,4-difluorophenyl)-1-[3-[(E)-4-(2,2,3,3-tetrafluoropropoxy)styryl]-1H-1,2,4-triazol-1-yl]-3-(1H-1,2,4-triazol-1-yl)propan-2-ol] | 1 | 1.56 (≈ 2.9 µM) | 12.5 (≈ 23.2 µM) | 0.78 (≈ 1.45 µM) | 0.39 (≈ 0.724 µM) | 12.5 (≈ 23.2 µM) | 12.5 (≈ 23.2 µM) | 1.7 | 43.5 | 53.6 | accumulates; also recorded: increased day-by day |  | dosage at which a decrease in serum cortisol was observed [1, 12]: ≥ 3 mg/kg/day; dosage at which atrophy of the seminiferous tubules of the testes was observed [1, 12]: ≥ 3 mg/kg/day; dosage at which hyperplasia and increase in lipid droplets in the zona fasciculata in the adrenal cortex was observed ([1]; every day for 28 days, 1, 3, 10 and 30 mg/kg/day, only slight for compound (+)-I): ≥ 3 mg/kg/day
2 | OC(Cn1cncn1)(Cn1cnc(/C=C/c2ccc(OCC(F)(F)C(F)F)cc2)n1)c1ccc(F)cc1F (single isomer, unassigned; (+)) [Compound (+)-I, (+)-2-(2,4-difluorophenyl)-1-[3-[(E)-4-(2,2,3,3-tetrafluoropropoxy)styryl]-1H-1,2,4-triazol-1-yl]-3-(1H-1,2,4-triazol-1-yl)propan-2-ol] | 30 |  | 12.5 (≈ 23.2 µM) |  |  |  |  | 1 | 19.7 | 39.8 | no day-by day increase in the plasma concentrations; also recorded: does not display accumulation | 2.6 | testicular toxicity (atrophy of the seminiferous tubules), finding in words ([1]; even at a dosage of 30 mg/kg/day): did not display; electrocardiogram / cardiotoxicity (prolongation of the QTc interval), finding in words [1, 20]: no abnormalities in the electrocardiogram were seen; also recorded: did not display cardiotoxicity (prolongation of the QTc interval); serum cortisol level (finding in words) [1, 20]: no decrease in the serum cortisol level; also recorded: did not display; MIC ([2]; 48 hours, listed as COMP. (+)I): 0.78 µg/mL (≈ 1.45 µM); MIC ([4]; 48 hours, listed as COMP. (+)I): 0.39 µg/mL (≈ 0.724 µM); MIC ([5]; 48 hours, listed as COMP. (+)I): 0.10 µg/mL (≈ 0.186 µM); MIC ([6]; 48 hours, listed as COMP. (+)I): 6.25 µg/mL (≈ 11.6 µM); MIC ([7]; 48 hours, listed as COMP. (+)I): 12.5 µg/mL (≈ 23.2 µM)
3 | OC(Cn1cncn1)(Cn1cnc(/C=C/c2ccc(OCC(F)(F)C(F)F)cc2)n1)c1ccc(F)cc1F (single isomer, unassigned; (-)) [Compound (-)-I, (-)-2-(2,4-difluorophenyl)-1-[3-[(E)-4-(2,2,3,3-tetrafluoropropoxy)styryl]-1H-1,2,4-triazol-1-yl]-3-(1H-1,2,4-triazol-1-yl)propan-2-ol] |  |  |  |  |  |  |  |  |  |  |  |  | MIC ([2]; 48 hours, listed as COMP. (-)I): >100 µg/mL; MIC ([3]; SDA agar plates): 12.5 µg/mL (≈ 23.2 µM); MIC ([4]; 48 hours, listed as COMP. (-)I): >100 µg/mL; MIC ([5]; 48 hours, listed as COMP. (-)I): 50 µg/mL (≈ 92.9 µM); MIC ([6]; 48 hours, listed as COMP. (-)I): >100 µg/mL; MIC ([7]; 48 hours, listed as COMP. (-)I): >100 µg/mL
4 | OC(Cn1cncn1)(Cn1cncn1)c1ccc(F)cc1F [FLUCONAZOLE, 2-(2,4-difluorophenyl)-1,3-bis(1H-1,2,4-triazol-1-yl)-propan-2-ol] |  | 100 (≈ 327 µM) | > 100 | 50 (≈ 163 µM) | 25 (≈ 81.6 µM) | > 100 | > 100 | 3.6 | > 100 | 57.9 |  | > 30 | 
